For one test, the system named is GP2D. Description: Cell proliferation inhibition, GP2D (CellTiter-Glo 3D, 7 days). The format is cell-based. As to the method:
(§1) • (a) Resuscitating cells in T75 cell culture flask: • (b) When the cell confluence reaches 80-90%, subculturing the cells.
(§2) The diluted test compound was added to a 384-well cell culture plate with a nanoliter pipetting system, and duplicate wells were set up. An equal volume of culture medium was added to the positive control group; and an equal volume of DMSO was added to the negative control group, then centrifugation was conducted at 1000 rpm for 1 min at room temperature.
(§3) Cells were inoculated into a) 384-well culture plate, with an equal volume of cells added to the negative control group, and only an equal volume of culture medium added to the positive control group. The plate was centrifuged at 1000 rpm for 1 min at room temperature, and the final DMSO concentration of the compound was 0.5% at last. The plate was placed in a 37° C., 5% CO2 constant temperature incubator for 7 days.
(§4) 20 μL/well of CellTiter-Glo® 3D to b) was added to 384-well cell culture plate, and the plate was shook at 320 rpm for 20 min in the dark, and incubated at room temperature in the dark for 2 hrs.
(§5) The luminescence value was read using an Envision multi-functional microplate reader.
(§6) The inhibition rate (IR) of the test compound was calculated using the following formula: IR (%)=(1−(RLU compound−RLU blank control)/(RLU meidum control−RLU blank control))*100%. The inhibition rates of different concentrations of compounds were calculated in Excel, and then the inhibition curves were plotted and the related parameters (including the minimum inhibition rate, maximum inhibition rate and IC50) were calculated using GraphPad Prism software.

The test system of a further test is AsPC-1. Description: Cell proliferation inhibition, AsPC-1 (CellTiter-Glo 3D, 7 days). The test is classed as cell-based. The settings on record: AsPC-1, 7 days. As to the method: as §1, §2, §3, §4, §5, §6

Structures are written as SMILES. Read-outs that look alike come from different tables or passages of the source. Where only a bound is given, the exact number is not on record here.

From patent publication US20250206758A1, “SUBSTITUTED BRIDGED RING INHIBITOR, PREPARATION METHOD THEREFOR AND APPLICATION THEREOF” (SUZHOU ZELGEN BIOPHARMACEUTICALS CO., LTD., priority 2022, published 2025) come the findings set out here.

`Oc1cc(Cl)c(C(F)(F)F)c(-c2ncc3c(N4CC5CCC(C4)N5)nc(OC[C@@]45CCCN4C[C@@]4(CC4(F)F)C5)nc3c2F)c1` [Example 40]: the IC50 with GP2D (168 h) worked out at 14 nM; in the test on AsPC-1 (Homo sapiens, ASPC1, 168 h), 51.6 nM.
For the molecule `C#Cc1c(F)ccc2cc(O)cc(-c3ncc4c(N5C[C@H]6CC[C@@H](C5)N6)nc(OC[C@]56C[C@@H](F)CN5C[C@]5(CC5(F)F)C6)nc4c3F)c12` [Example 15B, 4-(4-((1R,5S)-3,8-diazabicyclo[3.2.1]octan-3-yl)-8-fluoro-2-(((1R,6′R,7a'S)-2,2,6′-trifluorodihydro-1′H,3′H-spiro[cyclopropan-1,2′-pyrrolizin]-7a′(5′H)-yl)methoxy)pyridino[4,3-d]pyrimidin-7-yl)-5-ethynyl-6-fluoronaphthalen-2-ol], the IC50 in the test with GP2D (168 h) stood at 7.35 nM; in the test on AsPC-1 (Homo sapiens, ASPC1, 168 h) it was 50.8 nM.
In the case of `Nc1cc(-c2ncc3c(N4C[C@H]5CC[C@@H](C4)N5)nc(OC[C@@]45CCCN4C[C@@]4(CC4(F)F)C5)nc3c2F)c(Cl)c(C(F)(F)F)c1` [Example 45, 3-(4-((1R,5S)-3,8-diazabicyclo[3.2.1]octan-3-yl)-2-(((1S,7a'S)-2,2-difluorodihydro-1′H,3′H-spiro[cyclopropan-1,2′-pyrrolizin]-7a′(5′H)-yl)methoxy)-8-fluoropyridino[4,3-d]pyrimidin-7-yl)-4-chloro-5-(trifluoromethyl)aniline], the IC50 was 60 nM with GP2D (168 h) and 896 nM in the test on AsPC-1 (Homo sapiens, ASPC1, 168 h).
Take `C#Cc1c(F)ccc2cc(O)cc(-c3ncc4c(N5C[C@@H]6CC[C@](C)(C5)N6)nc(OC[C@@]56CCCN5C[C@@]5(CC5(F)F)C6)nc4c3F)c12` [Example 20B, 4-(2-(((1S,7a'S)-2,2-difluorodihydro-1′H,3′H-spiro[cyclopropan-1,2′-pyrrolizin]-7a′(5′H)-yl)methoxy)-8-fluoro-4-((1R,5S)-1-methyl-3,8-diazabicyclo[3.2.1]octan-3-yl)pyridino[4,3-d]pyrimidin-7-yl)-5-ethynyl-6-fluoronaphthol-2-ol]: the IC50 with GP2D is 0.58 nM; in the test with AsPC-1 it was 4.86 nM.
As for `C#Cc1c(F)ccc2cc(O)cc(-c3ncc4c(N5C[C@H]6CC[C@@H](C5)N6)nc(OC[C@]56C[C@H](F)CN5C[C@@]5(CC5(F)F)C6)nc4c3F)c12` [Example 15E, 4-(4-((1R,5S)-3,8-diazabicyclo[3.2.1]octan-3-yl)-8-fluoro-2-(((1S,6'S,7a'S)-2,2,6′-trifluorodihydro-1′H,3′H-spiro[cyclopropan-1,2′-pyrrolizin]-7a′(5′H)-yl)methoxy)pyridino[4,3-d]pyrimidin-7-yl)-5-ethynyl-6-fluoronaphthalen-2-ol], the IC50 in the test on GP2D (168 h) amounted to 32.2 nM; with AsPC-1 (Homo sapiens, ASPC1, 168 h) it was 314 nM.
For the molecule `Nc1cc(F)c(C(F)(F)F)c(-c2ncc3c(N4C[C@H]5CC[C@@H](C4)N5)nc(OC[C@@]45CCCN4C[C@@]4(CC4(F)F)C5)nc3c2F)c1` [Example 44, 3-(4-((1R,5S)-3,8-diazabicyclo[3.2.1]octan-3-yl)-2-(((1S,7a'S)-2,2-difluorodihydro-1′H,3′H-spiro[cyclopropan-1,2′-pyrrolizin]-7a′(5′H)-yl)methoxy)-8-fluoropyridino[4,3-d]pyrimidin-7-yl)-5-fluoro-4-(trifluoromethyl)aniline], the IC50 with GP2D (168 h) came out at 1.6 nM; in the test on AsPC-1 (Homo sapiens, ASPC1, 168 h), 23.3 nM.
For `N#Cc1c(N)sc2cc(F)cc(-c3ncc4c(N5C[C@H]6CC[C@@H](C5)N6)nc(OC[C@@]56CCCN5C[C@@]5(CC5(F)F)C6)nc4c3F)c12` [Example 32, 4-(4-((1R,5S)-3,8-diazabicyclo[3.2.1]octan-3-yl)-2-(((1S,7a'S)-2,2-difluorodihydro-1′H,3′H-spiro[cyclopropan-1,2′-pyrrolizin]-7a′(5′H)-yl)methoxy)-8-fluoropyridino[4,3-d]pyrimidin-7-yl)-2-amino-6-fluorobenzo[b]thiophen-3-carbonitrile], the half-inhibitory concentration (IC50) worked out at 21 nM with GP2D (168 h) and 483 nM in the test on AsPC-1 (Homo sapiens, ASPC1, 168 h).
`N#Cc1c(Cl)cc(N)cc1-c1ncc2c(N3C[C@H]4CC[C@@H](C3)N4)nc(OC[C@@]34CCCN3C[C@@]3(CC3(F)F)C4)nc2c1F` [Example 49, 2-(4-((1R,5S)-3,8-diazabicyclo[3.2.1]octan-3-yl)-2-(((1S,7a'S)-2,2-difluorodihydro-1′H,3′H-spiro[cyclopropan-1,2′-pyrrolizin]-7a′(5′H)-yl)methoxy)-8-fluoropyridino[4,3-d]pyrimidin-7-yl)-4-amino-6-chlorobenzonitrile]: the IC50 in the test on GP2D (168 h) was 24.4 nM; in the test on AsPC-1 (Homo sapiens, ASPC1, 168 h), over 1000 nM.
As for `C#Cc1c(F)ccc2cc(O)cc(-c3ncc4c(N5C[C@H]6CC[C@@H](C5)N6)nc(OCC56CC(F)(F)CN5CC5(CC5)C6)nc4c3F)c12` (stereo partly drawn) [Example 14, 4-(4-((1R,5S)-3,8-diazabicyclo[3.2.1]octan-3-yl)-2-((6′,6′-difluorotetrahydro-3′-H-spiro[cyclopropan-1,2′-pyrrolizin]-8a′(1′H)-yl)methoxy)-8-fluoropyridino[4,3d]pyrimidin-7-yl)-5-ethynyl-6-fluoronaphthalen-2-ol], the IC50 in the test on GP2D was over 100 nM; in the test on AsPC-1, 921 nM.
Turning to `CC(=O)Nc1cc(Cl)c(C(F)(F)F)c(-c2ncc3c(N4C[C@H]5CC[C@@H](C4)N5)nc(OC[C@@]45CCCN4C[C@@]4(CC4(F)F)C5)nc3c2F)c1` [Example 38, N-(3-(4-((1R,5S)-3,8-diazabicyclo[3.2.1]octan-3-yl)-2-(((1S,7a'S)-2,2-difluorodihydro-1′H,3′H-spiro[cyclopropan-1,2′-pyrrolizin]-7a′(5′H)-yl)methoxy)-8-fluoropyridino[4,3-d]pyrimidin-7-yl)-5-chloro-4-(trifluoromethyl)phenyl)acetamide], the IC50 with GP2D (168 h) came to 14.1 nM; with AsPC-1 (Homo sapiens, ASPC1, 168 h) it was 142 nM.
As for `C#Cc1c(F)ccc2cc(O)cc(-c3ncc4c(N5CC6CCC(C5)N6)nc(OCC56CCCN5C5(CC5)CC6)nc4c3F)c12` [Example 11, 4-(4-((1R,5S)-3,8-diazabicyclo[3.2.1]octan-3-yl)-8-fluoro-2-((tetrahydrospiro[cyclopropan-1,3′-pyrrolizin]-7a′(5′H)-yl)methoxy)pyridino[4,3d]pyrimidin-7-yl)-5-ethynyl-6-fluoronaphthalen-2-ol], the half-maximal inhibitory concentration (IC50) in the test with GP2D (168 h) was determined as 3.01 nM; with AsPC-1 (Homo sapiens, ASPC1, 168 h), 38.2 nM.
On to `C#Cc1c(F)ccc2cc(O)cc(-c3ncc4c(N5C[C@H]6CC[C@@](C)(C5)N6)nc(OC[C@@]56CCCN5C[C@@]5(CC5(F)F)C6)nc4c3F)c12` [Example 20A, 4-(2-(((1S,7a'S)-2,2-difluorodihydro-1′H,3′H-spiro[cyclopropan-1,2′-pyrrolizin]-7a′(5′H)-yl)methoxy)-8-fluoro-4-((1S,5R)-1-methyl-3,8-diazabicyclo[3.2.1]octan-3-yl)pyridino[4,3-d]pyrimidin-7-yl)-5-ethynyl-6-fluoronaphthol-2-ol], for which the values for the IC50 in the test with GP2D and with AsPC-1 were 0.44 nM and 4.11 nM, respectively.
In the case of `C#Cc1c(F)ccc2cc(O)cc(-c3ncc4c(N5C[C@H]6CC[C@@H](C5)N6)nc(OC[C@@]56C[C@H](F)CN5C[C@]5(CC5(F)F)C6)nc4c3F)c12` [Example 15H, 4-(4-((1R,5S)-3,8-diazabicyclo[3.2.1]octan-3-yl)-8-fluoro-2-(((1R,6'S,7a′R)-2,2,6′-trifluorodihydro-1′H,3′H-spiro[cyclopropan-1,2′-pyrrolizin]-7a′(5′H)-yl)methoxy)pyridino[4,3-d]pyrimidin-7-yl)-5-ethynyl-6-fluoronaphthalen-2-ol], the 50% inhibitory concentration (IC50) in the test with GP2D (168 h) came to 9.3 nM; in the test with AsPC-1 (Homo sapiens, ASPC1, 168 h), 226 nM.
